A word on the IC50: it is the point on the concentration scale where inhibition reaches its midpoint. A lower IC50 goes with greater potency.

Drawing on patent US10323038B2, “Pyrazole compounds and methods of making and using same” (ABIDE THERAPEUTICS, INC., priority 2015, dated 2019), this text covers IC50 and inhibition for 23 compounds.

The target of experiment [1] is MAGL (Mus musculus (Mouse), UniProt O35678). Nature of the experiment: In vitro competitive activity-based protein profiling, MAGL (mouse). It is filed as biochemical. The conditions noted are these: for inhibition at 1 µM: read-out: MAGL % inh. 1 μM (mouse). An outline of the steps:
(§1)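 Competitive ABPP; proteome 1.0 mg/mL total protein; mouse = brain membranes or cell lysates, human = prefrontal cortex or cell membranes. Inhibitor preinc 30 min, 37° C; FP-Rh/HT-01 (50 μM DMSO stock) 30 min, 37° C; SDS-PAGE, in-gel fluorescence of MAGL/FAAH bands.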

Experiment [2] concerns the target FAAH (Mus musculus (Mouse), UniProt O08914). Description: In vitro competitive activity-based protein profiling, FAAH (mouse). The conditions noted are these: for inhibition at 1 µM: read-out: FAAH % inh. 1 μM (mouse). Type of experiment: biochemical. In short, it runs like this:
as §1

Sequence of MAGL (O35678 whole entry): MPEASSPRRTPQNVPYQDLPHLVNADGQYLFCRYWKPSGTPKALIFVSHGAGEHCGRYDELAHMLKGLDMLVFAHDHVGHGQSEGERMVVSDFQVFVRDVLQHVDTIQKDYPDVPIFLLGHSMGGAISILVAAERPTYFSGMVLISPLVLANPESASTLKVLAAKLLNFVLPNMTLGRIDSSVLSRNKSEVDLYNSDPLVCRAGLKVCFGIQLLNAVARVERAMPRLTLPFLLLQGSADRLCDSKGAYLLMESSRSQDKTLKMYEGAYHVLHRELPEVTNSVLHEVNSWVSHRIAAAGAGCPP
Sequence of FAAH (O08914 whole entry): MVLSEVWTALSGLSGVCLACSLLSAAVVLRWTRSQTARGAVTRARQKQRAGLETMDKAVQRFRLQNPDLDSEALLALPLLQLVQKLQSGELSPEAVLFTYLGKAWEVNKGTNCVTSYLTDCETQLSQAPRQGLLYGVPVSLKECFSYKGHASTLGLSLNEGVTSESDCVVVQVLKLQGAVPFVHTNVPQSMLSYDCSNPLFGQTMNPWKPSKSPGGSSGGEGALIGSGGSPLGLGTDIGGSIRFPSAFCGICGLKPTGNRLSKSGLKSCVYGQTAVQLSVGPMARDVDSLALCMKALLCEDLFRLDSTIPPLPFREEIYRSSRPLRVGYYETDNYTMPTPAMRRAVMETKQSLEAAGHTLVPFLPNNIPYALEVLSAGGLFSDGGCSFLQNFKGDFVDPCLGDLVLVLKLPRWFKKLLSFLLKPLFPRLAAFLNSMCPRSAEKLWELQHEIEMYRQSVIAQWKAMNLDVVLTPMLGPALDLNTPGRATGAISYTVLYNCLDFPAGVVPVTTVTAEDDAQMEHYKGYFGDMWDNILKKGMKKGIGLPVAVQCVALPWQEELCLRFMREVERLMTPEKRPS

Take `CC(=O)N(C)c1cnn(C(=O)N2CC3CN(Cc4cccc(Oc5ccccc5Cl)c4)CC3C2)c1` (centres unmarked) [Example 240, N-(1-(5-(3-(2-chlorophenoxy)benzyl)octahydropyrrolo [3,4-c]pyrrole-2-carbonyl)-1H-pyrazol-4-yl)-N-methylacetamide]: in experiment [1], the IC50 was no more than 0.1 µM and the inhibition at 1 µM is no less than 75%. In experiment [2], the IC50 is no more than 0.1 µM and the inhibition at 1 µM is no less than 75%.

As to `CC(=O)N(C)c1cnn(C(=O)N2CC3CN(Cc4ccc(Oc5ccccc5)cc4)CC3C2)c1` (centres unmarked) [Example 241, N-methyl-N-(1-(5-(4-phenoxybenzyl)octahydropyrrolo[3,4-c]pyrrole-2-carbonyl)-1H-pyrazol-4-yl)acetamide], in experiment [1], the IC50 was no more than 0.1 µM and the inhibition at 1 µM was no less than 75%. In experiment [2], the IC50 is no more than 0.1 µM and the inhibition at 1 µM is no less than 75%.

Regarding `CC(=O)N(C)c1cnn(C(=O)N2CC3CN(Cc4ccc5c(c4)OC(F)(F)O5)CC3C2)c1` (centres unmarked) [Example 242, N-(1-(5-((2,2-difluorobenzo[d][1,3]dioxol-5-yl)methyl)octahydropyrrolo[3,4-c]pyrrole-2-carbonyl)-1H-pyrazol-4-yl)-N-methylacetamide], in experiment [1], the IC50 was no more than 0.1 µM and the inhibition at 1 µM was no less than 75%. In experiment [2], the IC50 was no more than 0.1 µM and the inhibition at 1 µM is no less than 75%.

Take `CC(=O)N(C)c1cnn(C(=O)N2CC3CN(Cc4cccc(Oc5cccc(Cl)c5)c4)CC3C2)c1` (centres unmarked) [Example 244, N-(1-(5-(3-(3-chlorophenoxy)benzyl)octahydropyrrolo [3,4-c]pyrrole-2-carbonyl)-1H-pyrazol-4-yl)-N-methylacetamide]: the IC50 in experiment [1] and in experiment [2] was no more than 0.1 µM throughout. Further, the inhibition at 1 µM in experiment [1] and in experiment [2] was no less than 75% each time.

Take `CC(=O)N(C)c1cnn(C(=O)N2CC3CN(Cc4ccc(Oc5ccc(Cl)cc5)cc4)CC3C2)c1` (centres unmarked) [Example 245, N-(1-(5-(4-(4-chlorophenoxy)benzyl)octahydropyrrolo [3,4-c]pyrrole-2-carbonyl)-1H-pyrazol-4-yl)-N-methylacetamide]: the IC50 in experiment [1] and in experiment [2] was no more than 0.1 µM throughout. For the same compound, the inhibition at 1 µM in experiment [1] and in experiment [2] was no less than 75% each time.

For `CC(=O)N(C)c1cnn(C(=O)N2CC3CN(Cc4cc(F)c(F)cc4F)CC3C2)c1` (centres unmarked) [Example 246, N-methyl-N-(1-(5-(2,4,5-trifluorobenzyl)octahydropyrrolo[3,4-c]pyrrole-2-carbonyl)-1H-pyrazol-4-yl)acetamide], in experiment [1], the IC50 lay within 0.1 to 1 µM and the inhibition at 1 µM was no less than 75%. Further, in experiment [2], the IC50 is no more than 0.1 µM and the inhibition at 1 µM is no less than 75%.

Consider `CC(=O)N(C)c1cnn(C(=O)N2CC3CN(Cc4cc(Cl)cc(N5CCC6(CCOCC6)C5)c4)CC3C2)c1` (centres unmarked) [Example 247, N-(1-(5-(3-chloro-5-(8-oxa-2-azaspiro[4.5]decan-2-yl)benzyl)octahydropyrrolo[3,4-c]pyrrole-2-carbonyl)-1H-pyrazol-4-yl)-N-methylacetamide], for which the inhibition at 1 µM in experiment [1] and in experiment [2] was no less than 75% each time.

For the compound `CC(=O)N(C)c1cnn(C(=O)N2CC3CN(Cc4ccc(OCc5ccccc5)cc4)CC3C2)c1` (centres unmarked) [Example 248, N-(1-(5-(4-(benzyloxy)benzyl)octahydropyrrolo[3,4-c]pyrrole-2-carbonyl)-1H-pyrazol-4-yl)-N-methylacetamide], in experiment [1], the IC50 was no more than 0.1 µM and the inhibition at 1 µM is no less than 75%. Besides, in experiment [2], the IC50 was no more than 0.1 µM and the inhibition at 1 µM is no less than 75%.

`CC(=O)N(C)c1cnn(C(=O)N2CC3CN(Cc4cccc(OCc5ccc(Cl)cc5)c4)CC3C2)c1` (centres unmarked) [Example 249, N-(1-(5-(3-((4-chlorobenzyl)oxy)benzyl)octahydropyrrolo[3,4-c]pyrrole-2-carbonyl)-1H-pyrazol-4-yl)-N-methylacetamide]: the inhibition at 1 µM in experiment [1] and in experiment [2] was no less than 75% in each case.

For `CC(=O)N(C)c1cnn(C(=O)N2CC3CN(Cc4ccc(N5C[C@@H]6C[C@H]5CN6C)cc4C(F)(F)F)CC3C2)c1` (stereo partly drawn) [Example 250, N-methyl-N-(1-(5-(4-((1S,4S)-5-methyl-2,5-diazabicyclo[2.2.1]heptan-2-yl)-2-(trifluoromethyl)benzyl)octahydropyrrolo [3,4-c]pyrrole-2-carbonyl)-1H-pyrazol-4-yl)acetamide], the inhibition at 1 µM in experiment [1] is no less than 75%; in experiment [2] it was 50 to 75%.

Regarding `CC(=O)N(C)c1cnn(C(=O)N2CC3CN(Cc4cc(Cl)cc(OCc5ccccc5)c4)CC3C2)c1` (centres unmarked) [Example 251, N-(1-(5-(3-(benzyloxy)-5-chlorobenzyl)octahydropyrrolo[3,4-c]pyrrole-2-carbonyl)-1H-pyrazol-4-yl)-N-methylacetamide], in experiment [1], the IC50 is no more than 0.1 µM and the inhibition at 1 µM is no less than 75%. In addition, in experiment [2], the IC50 was no more than 0.1 µM and the inhibition at 1 µM was no less than 75%.

For `CC(=O)N(C)c1cnn(C(=O)N2CC3CN(Cc4ccc(Oc5nc6ccccc6s5)cc4Cl)CC3C2)c1` (centres unmarked) [Example 252, N-(1-(5-(4-(benzo[d]thiazol-2-yloxy)-2-chlorobenzyl)octahydropyrrolo[3,4-c]pyrrole-2-carbonyl)-1H-pyrazol-4-yl)-N-methylacetamide], the inhibition at 1 µM in experiment [1] and in experiment [2] was no less than 75% throughout.

For the compound `CC(=O)N(C)c1cnn(C(=O)N2CC3CN(Cc4ccc(OC(C)C)cc4Cl)CC3C2)c1` (centres unmarked) [Example 253, N-(1-(5-(2-chloro-4-isopropoxybenzyl)octahydropyrrolo[3,4-c]pyrrole-2-carbonyl)-1H-pyrazol-4-yl)-N-methylacetamide], the inhibition at 1 µM in experiment [1] and in experiment [2] was no less than 75% in each case.

Turning to `CC(=O)N(C)c1cnn(C(=O)N2CC3CN(Cc4ccc(Oc5nc6ccccc6s5)cc4C(F)(F)F)CC3C2)c1` (centres unmarked) [Example 254, N-(1-(5-(4-(benzo[d]thiazol-2-yloxy)-2-(trifluoromethyl)benzyl)octahydropyrrolo [3,4-c]pyrrole-2-carbonyl)-1H-pyrazol-4-yl)-N-methylacetamide], the inhibition at 1 µM in experiment [1] and in experiment [2] was no less than 75% throughout.

On to `CC(=O)N(C)c1cnn(C(=O)N2CC3CN(Cc4ccc(OC(C)C)cc4C(F)(F)F)CC3C2)c1` (centres unmarked) [Example 255, N-(1-(5-(4-isopropoxy-2-(trifluoromethyl)benzyl)octahydropyrrolo [3,4-c]pyrrole-2-carbonyl)-1H-pyrazol-4-yl)-N-methylacetamide], for which the inhibition at 1 µM in experiment [1] and in experiment [2] was no less than 75% in each case.

Take `CC(=O)N(C)c1cnn(C(=O)N2CC3CN(Cc4ccc(OCC(=O)N5CCCC5)cc4C(F)(F)F)CC3C2)c1` (centres unmarked) [Example 256, N-methyl-N-(1-(5-(4-(2-oxo-2-(pyrrolidin-1-yl)ethoxy)-2-(trifluoromethyl)benzyl)octahydropyrrolo [3,4-c]pyrrole-2-carbonyl)-1H-pyrazol-4-yl)acetamide]: the inhibition at 1 µM in experiment [1] was 0 to 25%; in experiment [2], no less than 75%.

For `CC(=O)N(C)c1cnn(C(=O)N2CC3CN(Cc4ccc(Oc5ccnnc5)cc4Cl)CC3C2)c1` (centres unmarked) [Example 257, N-(1-(5-(2-chloro-4-(pyridazin-4-yloxy)benzyl)octahydropyrrolo[3,4-c]pyrrole-2-carbonyl)-1H-pyrazol-4-yl)-N-methylacetamide], the results for the inhibition at 1 µM in experiment [1] and in experiment [2] were 50 to 75% and no less than 75%, respectively.

With `CC(=O)N(C)c1cnn(C(=O)N2CC3CN(Cc4ccc(Oc5ccnnc5)cc4C(F)(F)F)CC3C2)c1` (centres unmarked) [Example 258, N-methyl-N-(1-(5-(4-(pyridazin-4-yloxy)-2-(trifluoromethyl)benzyl)octahydropyrrolo [3,4-c]pyrrole-2-carbonyl)-1H-pyrazol-4-yl)acetamide], the inhibition at 1 µM in experiment [1] and in experiment [2] was no less than 75% in each case.

In the case of `CC(=O)N(C)c1cnn(C(=O)N2CC3CN(Cc4ccc(-c5cncnc5)cc4Cl)CC3C2)c1` (centres unmarked) [Example 259, N-(1-(5-(2-chloro-4-(pyrimidin-5-yl)benzyl)octahydropyrrolo[3,4-c]pyrrole-2-carbonyl)-1H-pyrazol-4-yl)-N-methylacetamide], the inhibition at 1 µM in experiment [1] and in experiment [2] was no less than 75% in each case.

Take `CC(=O)N(C)c1cnn(C(=O)N2CC3CN(Cc4ccc(-c5cccnn5)cc4Cl)CC3C2)c1` (centres unmarked) [Example 260, N-(1-(5-(2-chloro-4-(pyridazin-3-yl)benzyl)octahydropyrrolo[3,4-c]pyrrole-2-carbonyl)-1H-pyrazol-4-yl)-N-methylacetamide]: the inhibition at 1 µM in experiment [1] and in experiment [2] was no less than 75% each time.

Regarding `CC(=O)N(C)c1cnn(C(=O)N2CC3CN(Cc4ccc(-c5ncccn5)cc4Cl)CC3C2)c1` (centres unmarked) [Example 261, N-(1-(5-(2-chloro-4-(pyrimidin-2-yl)benzyl)octahydropyrrolo[3,4-c]pyrrole-2-carbonyl)-1H-pyrazol-4-yl)-N-methylacetamide], the inhibition at 1 µM in experiment [1] and in experiment [2] was no less than 75% throughout.

As for `CC(=O)N(C)c1cnn(C(=O)N2CCC3(CCN(Cc4ccc(-c5cncnc5)cc4Cl)C3)C2)c1` (centres unmarked) [Example 262, N-(1-(7-(2-chloro-4-(pyrimidin-5-yl)benzyl)-2,7-diazaspiro[4.4]nonane-2-carbonyl)-1H-pyrazol-4-yl)-N-methylacetamide], the inhibition at 1 µM in experiment [1] and in experiment [2] was no less than 75% throughout.

For the compound `CC(=O)N(C)c1cnn(C(=O)N2CCC3(CCN(Cc4ccc(-c5cccnn5)cc4Cl)C3)C2)c1` (centres unmarked) [Example 263, N-(1-(7-(2-chloro-4-(pyridazin-3-yl)benzyl)-2,7-diazaspiro[4.4]nonane-2-carbonyl)-1H-pyrazol-4-yl)-N-methylacetamide], the inhibition at 1 µM in experiment [1] and in experiment [2] was no less than 75% each time.
